Data from patent US20130040982A1, “ORAL SUSTAINED RELEASE FORMULATION OF HUPERZINE A” (Yissum Research Development Company of the Hebrew …, priority 2010, published 2013).
Where two headings read alike, the source gives them in different places.

Assays:
[1] = in vivo; conditions: rat, 0.5 mg/kg
Procedure: All surgical and experimental procedures were reviewed and approved by the Animal Experimentation Ethics Committee of the Hebrew University Hadassah Medical School, Jerusalem. Male Wistar rats (Harlan, Israel), 290-350 grams in weight, were used for all surgical procedures.
Animals were anesthetized for the period of surgery by intra-peritoneal injection of 1 ml/kg of ketamine (9%)-xylazine (1%) solution. An indwelling cannula was placed in the right jugular vein of each animal for systemic blood sampling, as described in Jiang et al. [Curr Med Chem 2003, 10:2231-2252]. The cannula was tunneled beneath the skin and exteriorized at the dorsal part of the neck. After completion of the surgical procedure, the animals were transferred to metabolic cages to recover overnight (12-18 hours). During this recovery period and throughout the experiment, food, but not water, was deprived. Animals were randomly assigned to the different experimental groups.
In order to study the pharmacokinetic parameters of huperzine A, identical doses (0.5 mg/kg) of huperzine A dissolved in water were administered to 6 animals by oral gavage needle and to 6 animals by intravenous infusion through the jugular vein cannula followed by injection of 0.2 ml of heparinized saline (50 IU/ml) to ensure the delivery of the whole dose. Systemic blood samples (400 μl) were taken 5 minutes prior to dosing, and at various time periods post-dose, as indicated. To prevent dehydration, equal volumes of physiological solution were introduced to the rats following each withdrawal of a blood sample.
Another group (4 animals) received huperzine A as an intra-peritoneal injection. The doses, the vehicle and the volume used in the intra-peritoneal administration were similar to those used in the oral administration experiments.
Absorption of huperzine A from the colon was studied using an additional experimental group (7 animals). A cannula was placed to the cecum, tunneled beneath the skin and exteriorized at the dorsal part of the neck. Following overnight recovery, the animals were dosed through the colonic cannula and the pharmacokinetic experiment was conducted. The doses, the vehicle and the volume used in the colonic administration were similar to those used in the oral administration experiments. The drug was infused over the course of 90 minutes.
Absorption of huperzine A from the duodenum was studied using another experimental group (5 animals). A cannula was placed to the duodenum, tunneled beneath the skin and exteriorized at the dorsal part of the neck. Following overnight recovery, the animals were dosed through the duodenal cannula and the pharmacokinetic experiment was conducted. […]
Huperzine A concentrations in plasma samples were determined by an HPLC assay. The area under plasma concentrations versus time curves (AUC) for huperzine A in individual rats were analyzed using WinNonlin® Professional software version 5.0.1, according to the non-compartmental analysis model, as were other pharmacokinetic parameters (elimination constant (10; elimination half-life (T1/2); peak concentration (Cmax); and time to reach peak concentration (Tmax)). The absolute bioavailability (F) of huperzine A was calculated from the ratio of the AUCs normalized by dose after oral and intravenous administration.
All tested compounds were analyzed using a Waters 2695 Separation Module HPLC system with a Waters 2475 Fluorescence Detector and a Waters 2996 Photodiode Array Detector (Waters Corporation). […]

[2] = type: physicochemical; conditions: 1 μg/ml
Procedure: 0.5 ml of a 1 μg/ml aqueous solution of huperzine A was placed in glass tubes and heated in an oven for 30, 60 or 90 minutes. The samples were then reconstituted with double-distilled water and the amount of remaining huperzine A was determined by HPLC, as described hereinabove.

[3] = tested on: intestinal tissue (duodenum, jejunum, colon); type: in vitro ADME, rat
[4] = in vivo, po, cited from earlier work
[5] = tested on: Caco-2 cells; type: in vitro ADME
Procedure: Caco-2 cells were obtained from ATCC (Manassas, Va., USA) and grown in 75 cm^2 flasks with approximately 0.5-1×10^6 cells per flask, at a temperature of 37° C. in a 5% CO2 atmosphere with a relative humidity of 95%. The culture growth medium consisted of Dulbecco's Modified Eagle Medium (DMEM) supplemented with 10% heat-inactivated fetal bovine serum (FBS), 1% nonessential amino acids, and 2 mM L-glutamine. The medium was replaced twice weekly. All medium supplements were obtained from Biological Industries (Beth-Haemek, Israel).
Cells in a passage range of 52-60 were seeded at a density of […] on untreated culture inserts of a polycarbonate membrane with 0.4 μm pores and a surface area of 1.1 cm^2. The culture inserts containing Caco-2 monolayers were placed in Costar® 24-Transwell plates (12 mm wells). The culture medium was changed every other day. […]
The permeability coefficient (Papp) for each compound was calculated from the linear plot of drug accumulated versus time, using the following equation: […]
Intestinal permeability towards huperzine A was evaluated using an in vitro model with Caco-2 epithelial colorectal cell culture, and using an ex-vivo animal intestine model (Ussing chamber model), as described in the Materials and Methods section. […]

C/C=C1\[C@H]2C=C(C)C[C@]1(N)c1ccc(=O)[nH]c1C2 [huperzine A]
bioavailability ([1]; male, Wistar): ~50% | half-life ([1]; male, Wistar): ~1.67 h | bioavailability following colonic infusion ([1]; po): significantly lower than the bioavailability following oral bolus | bioavailability following duodenal infusion ([1]; po): at least as high as the bioavailability following oral bolus | time of maximal plasma levels (Cmax) ([1]; po): 25 to 30 min | temperature at which degradation of huperzine A was observed [2]: ≥ 150 °C | permeability towards huperzine A in the colon [3]: lower than in the jejunum and duodenum, but was still significant | bioavailability ([4]; human): 99% | half-lives ([4]; human): 6 to 12 h | time to peak serum concentration [4]: approximately 1 hour | permeability coefficient (Papp) [5]: lower than that of antipyrine, and higher than that of mannitol
